According to PubChem BioAssay AID248 (DTP/NCI, 2004):
Several values for one entry are separate records, joined by “and”; a condition that tells them apart may be missing. Equal values may be shown once. Inconclusive results and toxic doses are left out. No stated cut-off is given here; in the data, active means T/C of 150% or more; inactive means T/C below 125%.

Tested on: L1210 leukemia ip in BDF1 mice, survival T/C
Assay: NCI In Vivo Anticancer Drug Screen. Data for tumor model L1210 Leukemia (intraperitoneal) in B6D2F1 (BDF1) mice
Details: endpoint: mean survival time, higher = longer survival
Outline: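 Transplanted-tumor mice were given test agent; controls received vehicle only. Survival readings from the two groups were divided (treated over control).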

[1] = dose: 100.0 mg/kg/injection, schedule: Q01DX009 (ip), vehicle: Klucel (hydroxypropylcellulose) (HPC)
[2] = dose: 100.0 mg/kg/injection, schedule: Q04DX003 (ip), vehicle: Klucel (hydroxypropylcellulose) (HPC)
[3] = dose: 200.0 mg/kg/injection, schedule: Q01DX009 (ip), vehicle: Klucel (hydroxypropylcellulose) (HPC)
[4] = dose: 200.0 mg/kg/injection, schedule: Q04DX003 (ip), vehicle: Klucel (hydroxypropylcellulose) (HPC)
[5] = dose: 400.0 mg/kg/injection, schedule: Q01DX009 (ip), vehicle: Klucel (hydroxypropylcellulose) (HPC)
[6] = dose: 400.0 mg/kg/injection, schedule: Q04DX003 (ip), vehicle: Klucel (hydroxypropylcellulose) (HPC)
[7] = dose: 100.0 mg/kg/injection, schedule: Q01DX005 (ip), vehicle: saline
[8] = dose: 100.0 mg/kg/injection, schedule: Q04DX003 (ip), vehicle: saline with Tween-80
[9] = dose: 50.0 mg/kg/injection, schedule: Q01DX009 (ip), vehicle: saline with Tween-80
[10] = dose: 100.0 mg/kg/injection, schedule: Q01DX009 (ip), vehicle: saline with Tween-80
[11] = dose: 200.0 mg/kg/injection, schedule: Q01DX009 (ip), vehicle: saline with Tween-80
[12] = dose: 400.0 mg/kg/injection, schedule: Q01DX009 (ip), vehicle: saline with Tween-80
[13] = dose: 100.0 mg/kg/injection, schedule: Q04DX002 (ip), vehicle: saline
[14] = dose: 200.0 mg/kg/injection, schedule: Q04DX003 (ip), vehicle: saline with Tween-80
[15] = dose: 400.0 mg/kg/injection, schedule: Q04DX003 (ip), vehicle: saline with Tween-80
[16] = dose: 100.0 mg/kg/injection, schedule: Q04DX002 (ip), vehicle: saline with Tween-80

Measured: T/C

O=C(COc1ccccc1)NCCBr
inactive: [1] 96 % of control | [2] 110 % of control | dose: 133.0 mg/kg/injection, schedule: Q04DX003 (ip), vehicle: Klucel (hydroxypropylcellulose) (HPC) 98 % of control | [3] 102 % of control | [4] 98 % of control | dose: 300.0 mg/kg/injection, schedule: Q04DX003 (ip), vehicle: Klucel (hydroxypropylcellulose) (HPC) 98 % of control | [5] 95 % of control | [6] 101 % of control

CC1(C)OC2COC(c3[nH]nc(C(N)=O)c3C(=O)NN)C2O1 (configuration not stated)
inactive: [7] 103 % of control | dose: 200.0 mg/kg/injection, schedule: Q01DX005 (ip), vehicle: saline 97 % of control

Nc1nc(=O)n(C2OC(CO)C(O)C2O)c2nc(I)[nH]c12 (configuration not stated)
inactive: dose: 50.0 mg/kg/injection, schedule: Q01DX005 (ip), vehicle: saline 100 % of control | [7] 107 % of control

O=C(COc1ccc(Cl)cc1)OCCO
inactive: dose: 100.0 mg/kg/injection, schedule: Q01DX001 (ip), vehicle: gum acacia 90 % of control | dose: 200.0 mg/kg/injection, schedule: Q01DX001 (ip), vehicle: gum acacia 96 % of control | dose: 400.0 mg/kg/injection, schedule: Q01DX001 (ip), vehicle: gum acacia 95 % of control

O=C1c2ccccc2-c2cc(Br)c([N+](=O)[O-])c(Br)c21
inactive: dose: 100.0 mg/kg/injection, schedule: Q01DX001 (ip), vehicle: carboxymethylcellulose (CMC) 96 % of control | dose: 200.0 mg/kg/injection, schedule: Q01DX001 (ip), vehicle: carboxymethylcellulose (CMC) 101 % of control | dose: 400.0 mg/kg/injection, schedule: Q01DX001 (ip), vehicle: carboxymethylcellulose (CMC) 102 % of control

CC(N)COCc1ccccc1 (configuration not stated)
inactive: dose: 25.0 mg/kg/injection, schedule: Q01DX009 (ip), vehicle: saline 97 % of control | dose: 25.0 mg/kg/injection, schedule: Q04DX003 (ip), vehicle: saline with Tween-80 97 % of control | dose: 50.0 mg/kg/injection, schedule: Q01DX009 (ip), vehicle: saline 97 % of control | dose: 50.0 mg/kg/injection, schedule: Q04DX003 (ip), vehicle: saline with Tween-80 119 % of control | [8] 97 % of control and 88 % of control

Cc1nc(Cl)c(C(N)=O)nc1C
inactive: dose: 25.0 mg/kg/injection, schedule: Q01DX009 (ip), vehicle: saline with Tween-80 91 % of control | [9] 96 % of control | [10] 96 % of control and 97 % of control

O=C(O)CCNC(=O)c1ccccc1
inactive: dose: 87.5 mg/kg/injection, schedule: Q04DX003 (ip), vehicle: saline 97 % of control | dose: 175.0 mg/kg/injection, schedule: Q04DX003 (ip), vehicle: saline 98 % of control | dose: 350.0 mg/kg/injection, schedule: Q04DX003 (ip), vehicle: saline 93 % of control

CCOC(=O)C(C)(C)C(C)=O
inactive: [1] 99 % of control | [2] 103 % of control | [3] 99 % of control | [4] 103 % of control | [5] 95 % of control | [6] 97 % of control

CC1=C(C)C(=O)OC1=O
inactive: [2] 97 % of control | [4] 98 % of control

CNc1ccc(C(=O)O)cc1OC
inactive: [10] 95 % of control | [11] 91 % of control | [12] 88 % of control

C/C(=N\O)C(C)(C)O
inactive: [13] 101 % of control | dose: 200.0 mg/kg/injection, schedule: Q04DX002 (ip), vehicle: saline 108 % of control | dose: 400.0 mg/kg/injection, schedule: Q04DX002 (ip), vehicle: saline 105 % of control

NC1CCCCC1.[I][Pb]([I])([I])[I]
inactive: [8] 106 % of control | [14] 95 % of control | [15] 96 % of control

O=C1C2CCCCC2C(=O)N1O (configuration not stated)
inactive: dose: 100.0 mg/kg/injection, schedule: Q01DX001 (ip), vehicle: saline 94 % of control | dose: 100.0 mg/kg/injection, schedule: Q04DX003 (ip), vehicle: saline 102 % of control | dose: 200.0 mg/kg/injection, schedule: Q01DX001 (ip), vehicle: saline 92 % of control | dose: 200.0 mg/kg/injection, schedule: Q04DX003 (ip), vehicle: saline 96 % of control | dose: 400.0 mg/kg/injection, schedule: Q01DX001 (ip), vehicle: saline 94 % of control | dose: 400.0 mg/kg/injection, schedule: Q04DX003 (ip), vehicle: saline 103 % of control

C#CC(O)c1ccccc1 (configuration not stated)
inactive: dose: 12.5 mg/kg/injection, schedule: Q04DX003 (ip), vehicle: Klucel (hydroxypropylcellulose) (HPC) 94 % of control | dose: 25.0 mg/kg/injection, schedule: Q04DX003 (ip), vehicle: Klucel (hydroxypropylcellulose) (HPC) 99 % of control | dose: 50.0 mg/kg/injection, schedule: Q04DX003 (ip), vehicle: Klucel (hydroxypropylcellulose) (HPC) 101 % of control

Cc1nccc2c(C)c3c(cc12)c1ccccc1n3CCC1CO1 (configuration not stated)
inactive: dose: 37.5 mg/kg/injection, schedule: Q04DX003 (ip), vehicle: water 118 % of control | dose: 75.0 mg/kg/injection, schedule: Q04DX003 (ip), vehicle: water 122 % of control | dose: 150.0 mg/kg/injection, schedule: Q04DX003 (ip), vehicle: water 118 % of control

CN(C)c1ccc(N=Nc2ccc(Cl)c(Cl)c2)cc1
inactive: [9] 98 % of control | [10] 95 % of control | [11] 87 % of control

Cc1c(Cl)cccc1NC(=O)Nc1ccc(S(N)(=O)=O)cc1
inactive: [10] 93 % of control and 97 % of control | [16] 101 % of control and 110 % of control | [8] 100 % of control | [11] 104 % of control and 105 % of control | dose: 200.0 mg/kg/injection, schedule: Q04DX002 (ip), vehicle: saline with Tween-80 101 % of control and 104 % of control | [14] 95 % of control | [12] 93 % of control and 101 % of control | dose: 400.0 mg/kg/injection, schedule: Q04DX002 (ip), vehicle: saline with Tween-80 93 % of control and 95 % of control | [15] 92 % of control

CC(C)N(CCC(=O)CC12CC3CC(CC(C3)C1)C2)C(C)C
inactive: dose: 25.0 mg/kg/injection, schedule: Q04DX002 (ip), vehicle: saline 92 % of control | dose: 50.0 mg/kg/injection, schedule: Q04DX002 (ip), vehicle: saline 98 % of control | [13] 95 % of control and 97 % of control

CCNC1(c2cccs2)CCCCC1=O (configuration not stated)
inactive: dose: 20.0 mg/kg/injection, schedule: Q04DX003 (ip), vehicle: saline 102 % of control | dose: 40.0 mg/kg/injection, schedule: Q04DX003 (ip), vehicle: saline 104 % of control | dose: 80.0 mg/kg/injection, schedule: Q04DX003 (ip), vehicle: saline 102 % of control

CC(C)N(CCNCC(Cc1ccccc1)c1ccccc1)C(C)C (configuration not stated)
inactive: dose: 25.0 mg/kg/injection, schedule: Q04DX002 (ip), vehicle: saline with Tween-80 99 % of control | dose: 50.0 mg/kg/injection, schedule: Q04DX002 (ip), vehicle: saline with Tween-80 96 % of control | [16] 102 % of control

CCCCCCCCCCCC(=O)OCC1(C)COC(c2ccccc2)=N1 (configuration not stated)
inactive: dose: 100.0 mg/kg/injection, schedule: Q01DX001 (ip), vehicle: saline with Tween-80 97 % of control | dose: 200.0 mg/kg/injection, schedule: Q01DX001 (ip), vehicle: saline with Tween-80 104 % of control | dose: 400.0 mg/kg/injection, schedule: Q01DX001 (ip), vehicle: saline with Tween-80 104 % of control
